Source: ChEMBL document CHEMBL1177798, “Interaction of aminoadamantane derivatives with the influenza A virus M2 channel-docking using a pore blocking model” (Bioorg Med Chem Lett, 2010)

Molecular target: Matrix protein 2 (Influenza A virus, UniProt P06821)
Experiment: Binding affinity to Influenza A Weybridge(H7N7) virus Matrix protein 2 by spectrophotometry; call rule not given here
Set-up: species or system Influenza A virus (A/chicken/FPV/Weybridge(H7N7))

Matrix protein 2, sequence (P06821 whole entry): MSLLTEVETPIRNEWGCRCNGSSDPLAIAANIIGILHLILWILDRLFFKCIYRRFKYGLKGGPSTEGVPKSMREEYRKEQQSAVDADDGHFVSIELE

Q: With NC1CCCC1 [CYCLOPENTANAMINE] as the molecule, how does the Kd read?
A: Not Active
